Source: PMC8625065 (Molecules, 2021)
Where a name gives a salt, the structure may show the parent alone.

How the values were obtained:
ctDNA = assay: Thermal melting experiment; format: binding, calf; conditions: r = [compound]/[polynucleotide] = 0.3, pH 7.0, error ±0.5 °C
Description: (§1) Compound solutions were used for measurements in aqueous buffer (pH = 7, sodium cacodylate buffer, I = 0.05 mol dm^−3). Polynucleotides were purchased as noted: poly A-poly U, poly (dAdT)2 and calf thymus (ct)DNA (Sigma-Aldrich). Polynucleotides were dissolved in Na-cacodylate buffer, I = 0.05 mol dm^−3, pH = 7. The calf thymus ctDNA was additionally sonicated and filtered through a […]. Polynucleotide concentration was determined spectroscopically as the concentration of phosphates. UV–Vis spectra were recorded on a Varian Cary 100 Bio spectrophotometer using 1cm path quartz cuvettes. Calibration experiments were performed at 25 °C and pH = 7 (I = 0.05 mol dm^−3, sodium cacodylate buffer). Thermal melting curves for DNA and their complexes with studied compounds were determined as previously described by following the absorption change at 260 nm as a function of temperature. The absorbance of the ligands was subtracted from every curve and the absorbance scale was normalized. Tm values are the midpoints of the transition curves determined from the maximum of the first derivative and checked graphically by the tangent method. The ΔTm values were calculated by subtracting the Tm of the free nucleic acid from the Tm of the complex. Every ΔTm value reported here was the average of at least two measurements. The error in ΔTm is ±0.5 °C.

[1] = tested on: poly (dAdT)2 (DNA, polymer) AT; assay: fluorescence titration, Scatchard; conditions: Na+ (sodium cacodylate, I = 0.05 M); sodium cacodylate buffer pH 7.0, 25 °C; polynucleotide concentration as phosphates; per base
poly A-poly U = assay: Thermal melting experiment; format: binding; conditions: r = 0.3, pH 7.0, error ±0.5 °C
Description: as §1

poly(dAdT)2 = assay: Thermal melting experiment; format: binding; conditions: poly(dAdT)2, r = 0.3, pH 7.0; error ±0.5 °C
Description: as §1

[2] = tested on: poly A-poly U (RNA, polymer) A/U; assay: fluorescence titration, Scatchard; conditions: Na+ (sodium cacodylate, I = 0.05 M); sodium cacodylate buffer pH 7.0, 25 °C; polynucleotide concentration as phosphates; per base
[3] = tested on: A549 (lung adenocarcinoma); assay: MTT proliferation assay, 72 h; format: cell-based; conditions: Homo sapiens, A549 cells
Description: (§2) The cell lines HeLa (cervical carcinoma), SW620 (colorectal adenocarcinoma, metastatic), A549 (lung adenocarcinoma), HepG2 (hepatocellular carcinoma) and HFF (human foreskin fibroblasts) were cultured as monolayers and maintained in Dulbecco’s modified Eagle medium (DMEM), supplemented with 10% fetal bovine serum (FBS), 2mM L-glutamine, 100 U/mL penicillin and 100 μg/mL streptomycin in a humidified atmosphere with 5% CO2 at 37 °C.
(§3) Cells were seeded onto 96-well microtiter plates at a seeding density of 3000 cells/well for carcinoma cell lines, and 5000 cells/well for normal human fibroblasts. The next day, cells were treated with test agents at five different concentrations (0.01–100 µM) and further incubated for 72 h. […] Following 72 h incubation, the MTT assay was performed and measured absorbances were transformed into percentage of cell growth as described previously. Results were obtained from three independent experiments.

[4] = tested on: HFF (human foreskin fibroblasts); assay: MTT proliferation assay, 72 h, non-tumor cells; format: cell-based; design: selectivity index (SI): reference not given here; conditions: for IC50: Homo sapiens, Fibroblast, non-tumor HFF fibroblasts, MTT, 72 h
Description: as §2, §3

poly A-poly U (AU-RNA) = assay: Fluorimetric titration, Scatchard processing; format: binding; conditions: pH 7.0, sodium cacodylate buffer, I = 0.05 mol dm^-3
Description: (§4) Compound solutions were used for measurements in aqueous buffer (pH = 7, sodium cacodylate buffer, I = 0.05 mol dm^−3). Polynucleotides were purchased as noted: poly A-poly U, poly (dAdT)2 and calf thymus (ct)DNA (Sigma-Aldrich). Polynucleotides were dissolved in Na-cacodylate buffer, I = 0.05 mol dm^−3, pH = 7. The calf thymus ctDNA was additionally sonicated and filtered through a […]. Polynucleotide concentration was determined spectroscopically as the concentration of phosphates.
(§5) Fluorescence spectra were recorded on a Varian Cary Eclipse spectrophotometer at 25 °C using appropriate 1cm path quartz cuvettes. Fluorometric experiments were performed at pH = 7 (I = 0.05 mol dm^−3, sodium cacodylate buffer) by adding portions of polynucleotide solution into the solution of the studied compound. In fluorometric experiments, an excitation wavelength of λexc ≥ 300 nm was used to avoid the inner filter effect caused due to increasing absorbance of the polynucleotide. Emissions were determined in the range λem = 300–600 nm. Values for Ks obtained by processing titration data using the Scatchard equation [40], in most titrations have satisfactory correlation coefficients (≥0.98).

ctDNA (calf thymus DNA) = assay: Fluorimetric titration, Scatchard processing; format: binding; conditions: pH 7.0, sodium cacodylate buffer, I = 0.05 mol dm^-3
Description: as §4, §5

p(dAdT)2 (AT-DNA) = assay: Fluorimetric titration, Scatchard processing; format: binding; conditions: p(dAdT)2, pH 7.0, sodium cacodylate buffer, I = 0.05 mol dm^-3
Description: as §4, §5

[5] = tested on: HeLa (cervical carcinoma); assay: MTT proliferation assay, 72 h; format: cell-based, human; conditions: Homo sapiens; HeLa cells, MTT, 72 h
Description: as §2, §3

[6] = tested on: HepG2 (hepatocellular carcinoma); assay: MTT proliferation assay, 72 h; format: cell-based, human; conditions: for IC50: Homo sapiens, HepG2 cells, MTT, 72 h
Description: as §2, §3

[7] = tested on: SW620 (colorectal adenocarcinoma, metastatic); assay: MTT proliferation assay, 72 h; format: cell-based, human; conditions: Homo sapiens, SW-620; SW620 cells, MTT, 72 h
Description: as §2, §3

[8] = tested on: poly (dAdT)2 (DNA, polymer) AT; assay: UV thermal melting, 260 nm; conditions: Na+ (sodium cacodylate, I = 0.05 M); sodium cacodylate buffer pH 7
[9] = tested on: poly A-poly U (RNA, polymer) A/U; assay: UV thermal melting, 260 nm; conditions: Na+ (sodium cacodylate, I = 0.05 M); sodium cacodylate buffer pH 7

SMILES	melting point [°C]	ΔTm (ctDNA) [°C]	logKs [1]	ΔTm (poly A-poly U) [°C]	ΔTm (poly(dAdT)2) [°C]	logKs [2]	IC50 [3] [µM]	IC50 [4] [µM]	logKs (poly A-poly U (AU-RNA))	logKs (ctDNA (calf thymus DNA))	logKs (p(dAdT)2 (AT-DNA))	IC50 [5] [µM]	IC50 [6] [µM]	IC50 [7] [µM]	binding [8]	selectivity index (SI) ([4]; normal HFF fibroblasts versus tumor cells)	selectivity index (SI) on HepG2 ([6]; HFF versus HepG2 cells)	binding [9]
Cl.c1cnc2c(OCc3cn(-c4ccc(C5=NCCN5)cc4)nn3)cccc2c1 [Compound 9, 8-((1-(4-(4,5-Dihydro-1H-imidazol-2-yl)phenyl)-1H-1,2,3-triazol-4-yl)methyloxy)-quinoline hydrochloride]	229 to 232	1	5.8	0	3	5.1	25.2	< 0.01	5.1	5.3	5.8	10.3	9.07	2.69	yes	–	–	–
Cl.c1cnc2c(NCc3cn(-c4ccc(C5=NCCN5)cc4)nn3)cccc2c1 [Compound 8, 8-(((1-(4-(4,5-Dihydro-1H-imidazol-2-yl)phenyl)-1H-1,2,3-triazol-4-yl)methyl)amino)-quinoline hydrochloride]	192 to 196	0	5.5	0	1	–	29.1	11.7	–	–	5.5	23.8	4.84	35.6	–	2	–	–
Cl.O=c1ccc2ccc(OCc3cn(-c4ccc(C5=NCCN5)cc4)nn3)cc2o1 [Compound 11, 7-((1-(4-(4,5-Dihydro-1H-imidazol-2-yl)phenyl)-1H-1,2,3-triazol-4-yl)methyloxy)-coumarin hydrochloride]	> 250	0	4.9	0	2	4.9	4.49	3.14	4.9	–	4.9	2.13	0.28	4.77	yes	–	11	–
c1cc(C2=NCCN2)c2ccn(Cc3cn(-c4ccc(C5=NCCN5)cc4)nn3)c2c1	–	–	6.6	–	–	4.2	–	–	–	–	–	–	–	–	yes	–	–	–
c1cc(C2=NCCN2)c2ccn(Cc3cn(-c4ccc(C5=NCCN5)cc4)nn3)c2c1 [Compound 6, 1-((1-(4-(Dihydro-1H-imidazol-2-yl)phenyl)-1H-1,2,3-triazol-4-yl)methyl)-4-(dihydro-1H-imidazol-2-yl)-1H-indole dihydrochloride]	–	2	–	0	6	–	49.9	< 0.01	4.2	5.0	6.6	13.5	2.37	18	–	–	–	–
Cl.Cl.c1cc(C2=NCCN2)ccc1OCc1cn(-c2ccc(C3=NCCN3)cc2)nn1 [Compound 5, 1-(4-(4,5-Dihydro-1H-imidazol-2-yl)-phenyl]-4-((4-(4,5-dihydro-1H-imidazol-2-yl)phenyloxy)methyl]-1H-1,2,3-triazole dihydrochloride]	> 250	5	6.5	2	14	7.0	15.7	< 0.01	7.0	5.7	6.5	0.8	0.64	0.22	yes	–	–	yes
